One assay addresses T1, human alpha thrombin (Homo sapiens, UniProt P00734).
T1 construct: Purified human alpha-thrombin; purchased Enzyme Research Laboratories, Inc
Nature of the assay: Thrombin (fIIa) IC50 assay, chromogenic substrate Pefachrome t-PA. Type of assay: biochemical. As for the experimental part: (§1) The ability of compounds of the present invention to act as a selective inhibitor of thrombin catalytic activity was assessed by determining the concentration of compound which inhibited the activity of this enzyme by 50%, (IC50), and comparing this value to that determined for all or some of the following related serine proteases: recombinant tissue plasminogen activator (rt-PA), plasmin, activated protein C, chymotrypsin, factor Xa and trypsin.
(§2) The buffer used for all assays was HBSA (10 mM HEPES, pH 7.5, 150 mM sodium chloride, 0.1% bovine serum albumin).
(§3) The assay for IC50 determinations was conducted by combining in appropriate wells of a Corning microtiter plate, 50 microliters of HBSA, 50 microliters of the test compound at a specified concentration (covering a broad concentration range) diluted in HBSA (or HBSA alone for VO (uninhibited velocity) measurement), and 50 microliters of the enzyme diluted in HBSA. Following a 30 minute incubation at ambient temperature, 50 microliters of the substrate at the concentrations specified below were added to the wells, yielding a final total volume of 200 microliters. The initial velocity of chromogenic substrate hydrolysis was measured by the change in absorbance at 405 nm using a Thermo Max® Kinetic Microplate Reader over a 5 minute period in which less than 5% of the added substrate was utilized. The concentration of added inhibitor which caused a 50% decrease in the initial rate of hydrolysis was defined as the IC50 value.
Enzyme activity was determined using the chromogenic substrate, Pefachrome t-PA (CH3SO2-D-hexahydrotyrosine-glycyl-L-Arginine-p-nitroaniline, obtained from Pentapharm Ltd.). The substrate was reconstituted in deionized water prior to use. Purified human a-thrombin was obtained from Enzyme Research Laboratories, Inc. The buffer used for all assays was HBSA (10 mM HEPES, pH 7.5, 150 mM sodium chloride, 0.1% bovine serum albumin).
IC50 determinations were conducted where HBSA ([…]), a-thrombin (50 μl) and inhibitor (50 μl) (covering a broad concentration range), were combined in appropriate wells and incubated for 30 minutes at room temperature prior to the addition of substrate Pefachrome-t-PA (50 μl). The initial velocity of Pefachrome t-PA hydrolysis was measured by the change in absorbance at 405 nm using a Thermo Max® Kinetic Microplate Reader over a 5 minute period in which less than 5% of the added substrate was utilized. The concentration of added inhibitor which caused a 50% decrease in the initial rate of hydrolysis was defined as the IC50 value.

Another assay has as its target human plasmin (Homo sapiens, UniProt P00747). Nature of the assay: biochemical. As to conditions: 30 minute incubation; read-out: IC50 Plasmin (Table 2). As for the experimental part: as §1, §2, §3
Plasmin catalytic activity was determined using the chromogenic substrate, S-2366 [L-pyroglutomyl-L-prolyl-L-arginine-p-nitroaniline hydrochloride], which was obtained from Pharmacia-Upjohn. The substrate was made up in deionized water followed by dilution in HBSA prior to the assay in which the final concentration was 300 micromolar (about 2.5-times Km). Purified human plasmin was obtained from Enzyme Research Laboratories, Inc. The enzyme was diluted into HBSA prior to assay in which the final concentration was […].

Assay [1] has as its system pooled normal human plasma. Kind of assay: Ex vivo anticoagulant effect: activated partial thromboplastin time (APTT) in plasma. It counts as biochemical. As to the method: FIG. 6 depicts the anticoagulant effect of [3-[(benzylsulfonyl)amino]-2-oxo-1,2-dihydropyridyl] acetyl-L-arginal measured in citrated human plasma, closed circles (l), using the activated partial thromboplastin time (APTT) assay. […] The data is the mean of two independent determinations.
The ex vivo anticoagulant effect of [3-[(benzylsulfonyl)amino]-2-oxo-1,2-dihydropyridyl]acetyl-L-argininal was determined by measuring the prolongation of the activated partial thromboplastin time (APTT) over a broad concentration range of the added inhibitor, using pooled normal human plasma. Fresh frozen citrated pooled normal human plasma was obtained from George King Biomedical, Overland Park, Kans. Measurements of APTT were made using the Coag-A-Mate RA4 automated coagulometer (General Diagnostics, Organon Technica, Oklahoma City, Okla.) using the Platelin® L reagent (Organon Technica, Durham, N.C.) as the initiator of clotting according to the manufacturer's instructions. The assay was conducted by making a series of dilutions of the test compounds in rapidly thawed plasma followed by adding 200 microliters to the wells of the assay carousel.

The subject of assay [2] is FeCl3-induced occlusive thrombus in rat carotid artery. Nature of the assay: Rat model of FeCl3-induced platelet-dependent arterial thrombosis. It counts as in vivo. To be noted: for Incidence of Occlusion: n 6. From the text:
Rat Model of FeCl3-induced Platelet-dependent Arterial Thrombosis
Kurz, K. D., Main, B. W., and Sandusky, G. E., Thromb. […] In this model a platelet-rich, occlusive thrombus is formed in a segment of the rat carotid artery treated locally with a fresh solution of FeCl3 absorbed to a piece of filter paper. The FeCl3 is thought to diffuse into the treated segment of artery and cause de-endothelialization of the affected vessel surface. […] The effect of a test compound on the incidence of occlusive thrombus formation following the application of the FeCl3 is monitored by ultrasonic flowtometry and is used as the primary end point. The use of flowtometry to measure carotid artery blood flow, is a modification of the original procedure in which thermal detection of clot formation was employed. Kurz, K. D., Main, B. W., and Sandusky, G. E., Thromb.
Male Harlan Sprague Dawley rats (420-450 g) were acclimated at least 72 hours prior to use and fasted for 12 hours prior to surgery with free access to water. The animals were prepared, anesthetized with Nembutal followed by the insertion of catheters for blood pressure monitoring, drug and anesthesia delivery. The left carotid artery was isolated by making a midline cervical incision followed by blunt dissection and spreading techniques to separate a 2 cm segment of the vessel from the carotid sheath. A silk suture is inserted under the proximal and distal ends of the isolated vessel to provide clearance for the placement of a ultrasonic flow probe (Transonic) around the proximal end of the vessel. The probe is then secured with a stationary arm.
The test compound was administered as a single intravenous bolus at the doses outlined in Table 4 after placement of the flow probe and 5 minutes prior to the thrombogenic stimulus. At t=0, a 3 mm diameter piece of filter paper (Whatman #3) soaked with 10 microliters of a 35% solution of fresh FeCl3 (made up in water) was applied the segment of isolated carotid artery distal to the flow probe. Blood pressure, blood flow, heart rate, and respiration were monitored for 60 minutes.
The incidence of occlusion (defined as the attainment of zero blood flow) was recorded as the primary end point.
This allows a direct comparison of the antithrombotic efficacy of [3-[(benzylsulfonyl)amino]-2-oxo-1,2-dihydropyridyl]acetyl-L-argininal, with other antithrombotic agents which have also been evaluated in this model as described above. Table 5 lists the ED50 values for several well known anticoagulant agents in this model compared to [3-[(benzylsulfonyl)amino]-2-oxo-1,2-dihydropyridyl]acetyl-L-argininal.

Counter-ions that a name gives are not always drawn. Marks after values point to notes of the source that are not given here.

The term IC50 denotes the concentration at which inhibition is half-maximal. The ED50 is the dose at which the effect has come halfway, by size or by number of responders.

human plasmin, sequence (P00747 97-580): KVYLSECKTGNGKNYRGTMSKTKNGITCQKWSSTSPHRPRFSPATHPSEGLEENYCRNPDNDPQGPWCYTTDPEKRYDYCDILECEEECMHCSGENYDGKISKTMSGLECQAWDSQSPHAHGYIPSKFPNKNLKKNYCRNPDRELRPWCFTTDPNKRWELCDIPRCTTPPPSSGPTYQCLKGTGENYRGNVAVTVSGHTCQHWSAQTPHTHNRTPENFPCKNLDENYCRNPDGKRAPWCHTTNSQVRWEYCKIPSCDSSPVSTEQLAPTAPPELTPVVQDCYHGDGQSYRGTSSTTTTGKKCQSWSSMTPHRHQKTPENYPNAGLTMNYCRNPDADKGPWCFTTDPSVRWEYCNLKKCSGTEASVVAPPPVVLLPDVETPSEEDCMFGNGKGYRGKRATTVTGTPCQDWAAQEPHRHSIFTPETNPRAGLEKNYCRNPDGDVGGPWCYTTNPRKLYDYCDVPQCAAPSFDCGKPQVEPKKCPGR
human plasmin, sequence (P00747 581-810): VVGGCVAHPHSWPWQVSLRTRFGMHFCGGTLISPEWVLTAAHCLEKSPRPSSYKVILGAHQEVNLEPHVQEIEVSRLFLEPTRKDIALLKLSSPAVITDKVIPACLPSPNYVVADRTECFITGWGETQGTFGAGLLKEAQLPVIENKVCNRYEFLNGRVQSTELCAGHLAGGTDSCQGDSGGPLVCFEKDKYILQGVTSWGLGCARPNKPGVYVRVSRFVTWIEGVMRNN

With `N=C(N)NCCC[C@@H](C=O)NC(=O)Cn1cccc(NS(=O)(=O)Cc2ccccc2)c1=O` [Example 10, [3-[(benzylsulfonyl)amino]-2-oxo-1,2-dihydropyridyl]acetyl-L-argininal, trifluoroacetate salt], the IC50 is 0.66 nM against human alpha thrombin and above 2500 nM at human plasmin. In assay [1] (citrated human plasma, control clotting time 29 seconds, mean of two independent determinations), the “concentration which caused a doubling of the control clotting time (APTT)” value was 7.7 µM. Moreover, the “prolongation of the APTT” value in assay [1] (pooled normal human plasma, broad concentration range) is “prolonged the APTT in a dose dependent manner”. Further, the “Incidence of Occlusion” value is 6/6 in assay [2] (0.3 mg/kg single intravenous bolus 5 minutes prior to FeCl3, monitored 60 minutes); 3/6 in assay [2] (1.0 mg/kg single intravenous bolus 5 minutes prior to FeCl3); 1/6* in assay [2] (3.0 mg/kg single intravenous bolus 5 minutes prior to FeCl3, p ≦ 0.05 from saline control); 0/6* in assay [2] (5.0 mg/kg single intravenous bolus 5 minutes prior to FeCl3, p ≦ 0.05 from saline control). In addition, the ED50 in assay [2] (Rattus norvegicus, read-out: ED50 for thrombus prevention (dose that prevents complete thrombotic occlusion in 50% of animals)) was determined as 1 mg/kg.

The record behind these values is patent publication US6342504B1, “Aromatic heterocyclic derivatives as enzyme inhibitors” (priority 1994, dated 2002).
